Test results from publication PMC6594753, “Cystic fibrosis drug ivacaftor stimulates CFTR channels at picomolar concentrations” (eLife, 2019).
pEC50: −log10 of the molar value. Values joined by “and” are separate entries in the source; they are usually repeats but may differ in a detail not shown here. Identical values can stand only once. Like-named read-outs stand apart in the source and are kept apart here.

What was measured:
[1] = system: WT CFTR; details: cited from earlier work
[2] = parameters: method as in FDA report by Vertex Pharmaceuticals Incorporated; details: patients, oral, ref FDA report by Vertex Pharmaceuticals Incorporated, cited from earlier work
[3] = target: T1, ΔF508 CFTR (Homo sapiens, UniProt P13569, DEL508-508); assay: Quasi-macroscopic current recording in excised inside-out patches from Xenopus laevis oocytes; format: biochemical
T1 construct: expressed in transfected cells; host or cells: Xenopus laevis oocytes injected with cRNA transcribed from mutated pGEMHE-CFTR
T1 sequence (P13569 with tags, fused parts or gaps DEL508-508): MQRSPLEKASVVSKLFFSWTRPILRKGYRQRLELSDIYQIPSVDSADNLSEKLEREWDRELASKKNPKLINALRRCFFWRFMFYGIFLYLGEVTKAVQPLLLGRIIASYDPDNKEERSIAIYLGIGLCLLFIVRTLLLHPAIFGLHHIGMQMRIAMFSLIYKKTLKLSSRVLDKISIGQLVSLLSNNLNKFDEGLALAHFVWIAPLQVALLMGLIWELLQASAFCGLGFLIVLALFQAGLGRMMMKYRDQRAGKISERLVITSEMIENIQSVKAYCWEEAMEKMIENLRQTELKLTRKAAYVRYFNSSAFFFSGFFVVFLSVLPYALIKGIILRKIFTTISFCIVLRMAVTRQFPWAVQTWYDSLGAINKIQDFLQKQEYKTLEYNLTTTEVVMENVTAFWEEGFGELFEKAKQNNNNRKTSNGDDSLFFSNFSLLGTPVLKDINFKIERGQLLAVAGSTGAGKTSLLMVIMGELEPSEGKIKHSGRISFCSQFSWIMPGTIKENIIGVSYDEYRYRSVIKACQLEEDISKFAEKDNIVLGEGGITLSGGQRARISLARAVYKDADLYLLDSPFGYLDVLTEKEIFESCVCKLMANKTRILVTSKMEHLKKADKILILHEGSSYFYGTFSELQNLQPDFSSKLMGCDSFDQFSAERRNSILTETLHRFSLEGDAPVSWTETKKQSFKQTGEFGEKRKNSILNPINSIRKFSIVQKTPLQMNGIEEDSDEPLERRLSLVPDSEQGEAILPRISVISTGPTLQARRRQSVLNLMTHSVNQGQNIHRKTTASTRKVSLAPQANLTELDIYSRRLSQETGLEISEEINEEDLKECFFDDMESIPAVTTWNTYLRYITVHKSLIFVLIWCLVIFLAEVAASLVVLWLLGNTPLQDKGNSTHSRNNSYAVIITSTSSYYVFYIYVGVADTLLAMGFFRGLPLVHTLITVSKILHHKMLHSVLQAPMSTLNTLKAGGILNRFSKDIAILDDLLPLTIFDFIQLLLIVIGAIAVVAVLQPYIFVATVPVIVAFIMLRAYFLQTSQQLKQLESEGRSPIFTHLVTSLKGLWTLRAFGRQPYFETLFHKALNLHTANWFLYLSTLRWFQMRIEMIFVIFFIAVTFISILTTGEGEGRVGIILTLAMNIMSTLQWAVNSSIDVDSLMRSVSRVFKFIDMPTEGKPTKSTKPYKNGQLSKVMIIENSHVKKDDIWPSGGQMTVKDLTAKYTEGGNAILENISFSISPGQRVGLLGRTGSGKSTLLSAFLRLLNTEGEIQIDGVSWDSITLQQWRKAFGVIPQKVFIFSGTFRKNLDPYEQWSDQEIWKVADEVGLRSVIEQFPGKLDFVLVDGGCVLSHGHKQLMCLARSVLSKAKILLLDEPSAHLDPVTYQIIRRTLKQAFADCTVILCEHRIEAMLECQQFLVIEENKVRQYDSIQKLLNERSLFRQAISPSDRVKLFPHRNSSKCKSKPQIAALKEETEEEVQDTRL
Text: (§1) We reasoned that this circumstance might explain some of the puzzling features of the drug, such as CFTR channel inactivation observed in some cases ([Cholon et al., 2014]), as well as apparent irreversibility of drug effects ([Jih and Hwang, 2013]; [Lin et al., 2016]; [Yeh et al., 2015]; [Yeh et al., 2017]; [Wang et al., 2014]; [Wang et al., 2018]). To investigate stability and reversibility of Vx-770 effects in a concentration range that can be achieved in the human body during oral drug administration, we tested the effects of our 1x saturated Vx-770 solution and its dilutions in inside-out patches excised from Xenopus laevis oocytes expressing WT or mutant human CFTR channels.
(§2) The G551D and ΔF508 mutations were introduced into pGEMHE-CFTR using the QuikChange Kit (Agilent, Santa Clara, CA, USA), and confirmed by automated sequencing; cDNA was purified (HiSpeed Plasmid Midi Kit, Qiagen), transcribed in vitro (mMessage T7 Kit, ThermoFisher Scientific, Waltham, MA USA) and cRNA stored at −80°C.
(§3) Patch pipette solution contained (in mM): 136 NMDG-Cl, 2 MgCl2, 5 HEPES, pH = 7.4 with NMDG. Bath solution contained (in mM): 134 NMDG-Cl, 2 MgCl2, 5 HEPES, 0.5 EGTA, pH = 7.1 with NMDG. MgATP (2 mM) was added from a 400 mM aqueous stock solution (pH = 7.1 with NMDG). Before each experiment 300 nM catalytic subunit of PKA (Sigma-Aldrich Kft., Budapest, Hungary) was applied for ~1 min to phosphorylate CFTR channels. Vx-770 (Selleck Chemicals) was diluted into the bath solution either from a ‘1x saturated’ aqueous stock solution (see above, concentration ~62 nM), or from a commercially obtained 10 mM stock dissolved in DMSO (Selleck Chemicals). Following patch excision the patch pipette was moved into a flow chamber, and recordings were done under continuous superfusion of the cytosolic patch surface. Solution compositions were exchanged using computer-driven electronic valves (solution exchange time constant <50 ms). After each recording day perfusion tubings were extensively washed with distilled water. Although supersaturated solutions of Vx-770 were not employed here, any perfusion tubing that had ever been in contact with a given concentration of Vx-770 was subsequently used only for solutions that contained the same, or higher, concentrations of the drug. After every 5–6 experimental days the entire perfusion system was replaced. Currents were recorded at 25°C, at a membrane potential of −40 mV, digitized at 10 kHz, Gaussian-filtered at 2 kHz, and recorded to disk (Axopatch 200B, Digidata 1322A, Pclamp9 (Molecular Devices, RRID: SCR_011323)). For display purposes, currents are shown filtered at 10 Hz and sampled at 20 Hz, and expanded single-channel traces (Figure 2b, Figure 4d) are shown filtered at 50 Hz and sampled at 250 Hz.
(§4) Vx-770 was applied after currents elicited by 2 mM ATP had stabilized. To allow for full development of its potentiator effect, Vx-770 was superfused until the current reached steady state which, for low nanomolar Vx-770, required up to 5–6 min. After full stimulation, Vx-770 was washed off for at least 5 min to allow the current to decline to a post-drug steady state. Fractional current stimulation by Vx-770 (I/Icontrol) was calculated as the mean steady current in the presence of the drug, divided by the average of the pre- and post-drug mean steady currents. Dose response curves (Figure 3c,f) were least-squares fitted to the modified Hill equation I/Icontrol=(K0.5^n+(Imax/Icontrol)[Vx-770]^n)/(K0.5^n+[Vx-770]^n), with Imax/Icontrol, K0.5, and n as free parameters.
(§5) To obtain apparent deactivation rates, current decay time courses following Vx-770 removal were fitted by single exponentials using least squares, and deactivation rates defined as the inverse of the decay time constant (1/τoff; Figure 4c). To obtain apparent activation rates, current activation time courses upon Vx-770 addition were fitted to an empirical three-step kinetic scheme S1→S2→S3→S4. […]

[4] = target: T2, G551D CFTR (Homo sapiens, UniProt P13569, G551D); assay: as above; format: biochemical
T2 construct: expressed in transfected cells; host or cells: Xenopus laevis oocytes injected with cRNA transcribed from mutated pGEMHE-CFTR
T2 sequence (P13569 whole entry G551D): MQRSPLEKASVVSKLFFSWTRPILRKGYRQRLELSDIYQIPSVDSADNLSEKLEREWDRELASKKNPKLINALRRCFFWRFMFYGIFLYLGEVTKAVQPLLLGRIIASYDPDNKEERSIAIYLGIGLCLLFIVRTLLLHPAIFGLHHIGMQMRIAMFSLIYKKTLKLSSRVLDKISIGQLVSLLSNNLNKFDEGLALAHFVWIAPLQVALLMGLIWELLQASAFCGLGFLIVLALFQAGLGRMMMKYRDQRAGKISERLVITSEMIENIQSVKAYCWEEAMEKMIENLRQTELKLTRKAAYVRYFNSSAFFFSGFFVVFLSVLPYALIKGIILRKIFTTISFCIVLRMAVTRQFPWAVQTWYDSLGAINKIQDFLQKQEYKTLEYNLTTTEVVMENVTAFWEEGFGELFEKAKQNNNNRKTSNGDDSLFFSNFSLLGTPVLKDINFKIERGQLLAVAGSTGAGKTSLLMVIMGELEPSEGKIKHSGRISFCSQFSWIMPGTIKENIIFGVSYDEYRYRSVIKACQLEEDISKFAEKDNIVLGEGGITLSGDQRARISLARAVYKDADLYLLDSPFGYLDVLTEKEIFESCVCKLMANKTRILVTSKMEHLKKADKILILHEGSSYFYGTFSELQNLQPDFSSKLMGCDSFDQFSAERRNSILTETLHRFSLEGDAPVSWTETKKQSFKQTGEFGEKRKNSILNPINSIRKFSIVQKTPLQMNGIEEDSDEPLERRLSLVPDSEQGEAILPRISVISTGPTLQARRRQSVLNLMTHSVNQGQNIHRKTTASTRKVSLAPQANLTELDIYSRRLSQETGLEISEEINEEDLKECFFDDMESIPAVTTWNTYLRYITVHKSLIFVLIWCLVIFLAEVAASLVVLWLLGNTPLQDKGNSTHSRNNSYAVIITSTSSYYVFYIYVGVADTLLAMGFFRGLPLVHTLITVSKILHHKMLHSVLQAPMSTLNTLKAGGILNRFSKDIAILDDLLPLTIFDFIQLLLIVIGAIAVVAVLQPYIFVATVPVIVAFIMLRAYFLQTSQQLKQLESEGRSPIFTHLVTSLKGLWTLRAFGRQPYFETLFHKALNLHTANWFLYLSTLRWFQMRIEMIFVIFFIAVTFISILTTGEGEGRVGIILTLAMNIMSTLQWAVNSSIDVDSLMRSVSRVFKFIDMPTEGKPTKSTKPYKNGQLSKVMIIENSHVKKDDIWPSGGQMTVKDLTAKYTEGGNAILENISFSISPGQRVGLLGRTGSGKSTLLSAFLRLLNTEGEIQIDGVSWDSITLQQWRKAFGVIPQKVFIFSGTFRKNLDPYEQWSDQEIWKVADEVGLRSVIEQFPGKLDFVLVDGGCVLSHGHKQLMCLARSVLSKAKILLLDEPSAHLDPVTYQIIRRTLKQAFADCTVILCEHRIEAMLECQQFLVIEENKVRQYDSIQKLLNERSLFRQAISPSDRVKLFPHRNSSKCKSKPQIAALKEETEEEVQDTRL
Text: as §1, §2, §3, §4, §5

[5] = Thermodynamic parameters of the Vx-770 aqueous solution process; format: physicochemical
Experimental: As a further parameter of clinical interest, we also determined the aqueous solubility of Vx-770 at body temperature (pH = 7.1). […] The standard enthalpy of solution, estimated from the solubilities at 37°C vs. 25°C, is ΔH^osol = +51.2 kJ/mol, and the standard free energy of solution at 25°C is ΔG^osol = +41.1 kJ/mol (Materials and methods).
The standard enthalpy of solution was calculated as ΔH^osol = ((RT1T2)/(T2−T1))⋅ln(S(T2)/S(T1)), where R = 8.31 Jmol^−1K^−1, T1 = 298 K (25°C), T2 = 310 K (37°C), and S(T1) and S(T2) are the measured aqueous solubilities of Vx-770 at the respective temperatures (pH = 7.1). The standard free energy of solution at T = 298 K (25°C) was calculated as ΔG^osol = −RT⋅ln(S(T)).

[6] = diluted from 1x saturated aqueous stock, 2 mM ATP, read-out: K0.5 for current stimulation

Hill coefficient [3]: 1.12±0.07
reversibility of current stimulation [3]: fully reversible
time constant of reversal [3]: ~ 2 min
pEC50 [3, 6]: 8.82 and ~8.82
Hill coefficient [4]: 1.22±0.10
potency higher than previously reported [4]: ~ 200 fold
reversibility of current stimulation [4]: fully reversible
time constant of reversal [4]: ~ 2 min
pEC50 [4, 6]: 8.85 and ~8.82
TΔS^osol ([5]; 25°C): +10.1 kJ/mol
standard free energy of solution ΔG^osol ([5]; 25°C): +41.1 kJ/mol
standard enthalpy of solution ΔH^osol ([5]; from aqueous solubilities at 37°C vs. 25°C, pH 7.1): +51.2 kJ/mol
SMILES: CC(C)(C)c1cc(C(C)(C)C)c(NC(=O)c2c[nH]c3ccccc3c2=O)cc1O [Vx-770, ivacaftor]
maximal stimulation of WT CFTR channels ([1]; lower end of reported range, ref Cui and McCarty, 2015): ~ 1.1 fold
reversibility of CFTR channel stimulation in cell-free patches ([1]; ref Jih and Hwang, 2013, Lin et al., 2016, Yeh et al., 2015, 2017, Wang et al., 2014, 2018): irreversible
pEC50 ([1]; ref Van Goor et al., 2014, Langron et al., 2018, read-out: previously reported K0.5 for stimulation of WT CFTR): ~6.52
maximal stimulation of WT CFTR channels ([1]; upper end of reported range, ref Wang et al., 2018): ~ 3 fold
peak plasma concentration ([2]; twice daily 150 mg (therapeutic)): ~ 4 μM
peak plasma concentration ([2]; twice daily 450 mg (supratherapeutic)): > 10 µM
